In US9089499B2, “Para-coumaric acid or para-hydroxycinnamic acid derivatives and their use in cosmetic or dermatological compositions” (BASF Beauty Care Solutions France S.A.S., priority 2005, dated 2015):
Like-named read-outs stand apart in the source and are kept apart here.

Columns and labels:
Human tyrosinase [1] = molecular target: T1, Human tyrosinase (Homo sapiens, UniProt P14679); assay: In vitro test of inhibition of human tyrosinase from melanocyte extracts (L-dopa/MBTH, OD 490 nm); format: biochemical; conditions: melanocyte extract; for inhibition at 100 µM: 10^−4M, read-out: Inhibition of human tyrosinase, percentage of inhibition, Mean 10^−4M; for inhibition at 10 µM: 10^−5M, read-out: Inhibition of human tyrosinase, percentage of inhibition, Mean 10^−5M
T1 construct: endogenous in cells; host or cells: normal human melanocytes (abdominal surgery; several donors of fair, brown and black phototypes)
T1 sequence (P14679 19-529): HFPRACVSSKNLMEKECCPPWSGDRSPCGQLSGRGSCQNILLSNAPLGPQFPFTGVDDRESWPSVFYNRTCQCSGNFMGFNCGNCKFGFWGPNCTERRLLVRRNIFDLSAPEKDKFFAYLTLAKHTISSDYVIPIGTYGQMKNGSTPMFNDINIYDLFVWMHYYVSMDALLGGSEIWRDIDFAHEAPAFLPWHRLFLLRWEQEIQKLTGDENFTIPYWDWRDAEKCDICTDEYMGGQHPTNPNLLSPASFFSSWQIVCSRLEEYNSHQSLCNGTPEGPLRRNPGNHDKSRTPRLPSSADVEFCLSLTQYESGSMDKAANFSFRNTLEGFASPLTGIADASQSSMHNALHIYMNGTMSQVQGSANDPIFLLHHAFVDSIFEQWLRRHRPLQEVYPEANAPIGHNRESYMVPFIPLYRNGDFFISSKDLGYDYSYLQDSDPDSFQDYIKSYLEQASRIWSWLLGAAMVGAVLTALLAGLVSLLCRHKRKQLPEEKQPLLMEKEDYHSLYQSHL
Method: Human tyrosinase, obtained from melanocyte extracts obtained from healthy donors, catalyses the formation of L-dopaquinone from L-dopa. Now, the L-dopaquinone may be quantified by visible spectrophotometry at 490 nm by means of a chromogen: 3-methyl-2-benzothiazolinone hydrazone (MBTH).
The melanocyte extract is obtained after lysis of cell membranes of the normal human melanocytes, performed via a thermal shock. The supernatant is recovered and then incubated with MBTH (Sigma) and L-dopa (Sigma). […]

normal human melanocytes = assay: Cytotoxicity on normal human melanocytes, PNPP assay; format: cell-based; conditions: 24 hours, relative to untreated wells
Method: The cytotoxicity of the active agents is studied on normal human melanocytes in 24-well plates, via assay with PNPP (P-nitrophenyl phosphate), this substance being converted into p-nitrophenol via the intracellular acid phosphatases of viable cells. The absorbance of p-nitrophenol at 405 nm is directly proportional to the number of viable cells.
The active agents are tested at 2 different concentrations (10^−4 M and 10^−5 M) and added to the culture medium and incubated at 37° C. for 24 hours. The assay with PNPP is performed on the cell lawn and the results are expressed as a percentage of viability relative to the negative control (untreated wells).

Human tyrosinase [2] = molecular target: T1, Human tyrosinase; assay: Inhibition of human tyrosinase after 24 h application to normal human melanocytes in monolayer; format: cell-based; conditions: for inhibition at 1000 µM: 10^−3 M
Method: Normal human melanocytes (obtained from abdominal surgery) are seeded in 24-well plates at a rate of 80 000 cells per well. They are cultured to confluence and the active agents are applied for 24 hours to the culture media. After 24 hours, the media are removed and the melanocytes are detached via mechanical action. An extraction is performed via a thermal shock and the supernatants are then recovered and incubated with MBTH (Sigma) and L-dopa (Sigma). The OD at 490 nm is measured after 30 minutes, and the tyrosinase inhibition is calculated by relating the OD at 490 nm to the protein content (measured in each culture well) of the test relative to the ratio: OD 490 nm/protein concentration of the negative control (untreated control).
The compounds derived from the examples mentioned above were tested on melanocytes derived from various donors but of fair phototype, according to the protocol described in Example 29. The donors tested are as follows: • donor S (donor tested in Example 12): • donor 1: • donor 2: • donor 3
The compound derived from Example 1 is tested on cultures of melanocytes obtained from 2 donors of brown phototype and from one donor of black phototype. The protocol applied is that described in Example 29. […]

[3] = Antiradical activity, acellular DPPH model; conditions: DPPH 30 minutes, absorbance 520 nm
Method: The antiradical activity of the derivatives derived from the syntheses described above was evaluated in an in vitro acellular model using DPPH.
1,1-Diphenyl 2-picryihydrazyl, on account of its paramagnetic structure, can accept an electron or a hydrogen radical to become a stable diamagnetic molecule. This free radical, which is purple coloured in ethanol, has a strong absorption band at 520 nm.
The addition of a compound that provides electrons results in a decolorization of the 1,1-diphenyl 2-picrylhydrazyl that is proportional to the number of electrons taken up by the radical, which may be monitored by measuring the absorbance at 520 nm.
DPPH is incubated for 30 minutes in the presence of the derivatives described above, tested at a concentration of 10^−5M, or alone for the control. At the end of the incubation, the antiradical activity of the above derivatives is evaluated by measuring the absorbance of the solution at 520 nm.
The antiradical activity of each test product is calculated according to the formula, as a percentage: 100−((OD520 in the presence of the test compound/OD520 in the absence of compound)×100)

fungal tyrosinase = assay: In vitro test of inhibition of isolated fungal tyrosinase (L-dopa, dopachrome OD 490 nm); format: biochemical; conditions: 490 nm
Excerpt: Tyrosinase catalyses the formation of L-dopaquinone and then of dopachrome from L-dopa. Now, dopachrome is a coloured compound that may be quantified by visible spectrophotometry at 490 nm. The use of an active agent capable of modifying the enzymatic activity will be reflected by a variation in the optical density at 490 nm. The to ratio of the rates of formation of dopachrome makes it possible to determine precisely the activations or inhibitions obtained with the various test molecules.
The sample to be tested is incubated in the presence of fungal tyrosinase (Sigma), for 5 minutes with stirring. L-Dopa (Sigma), a tyrosinase substrate, is incubated for 10 minutes in the absence of light, in the presence or absence of the test molecules. The calculation of the percentage of inhibition is performed by relating the test OD to the OD of the negative control without molecule.
In the context of this in vitro test, the p-coumaric acid derivatives were tested at final concentrations of 10^−4M and 10^−5M.

[4] = 10^−4M, 24 hours, read-out: Inhibition of human tyrosinase after application to normal human melanocytes, percentage of inhibition, Mean 10^−4M
[5] = 10^−5M, 24 hours, read-out: Inhibition of human tyrosinase after application to normal human melanocytes, percentage of inhibition, Mean 10^−5M
[6] = Donor 1, fair phototype, 10^−4 M, read-out: Inhibition of tyrosinase, Mean 10^−4 M, Donor 1
[7] = Donor 1, fair phototype, 10^−5 M, read-out: Inhibition of tyrosinase, Mean 10^−5 M, Donor 1
[8] = Donor 2, fair phototype, 10^−4 M, read-out: Inhibition of tyrosinase, Mean 10^−4 M, Donor 2
[9] = Donor 2, fair phototype, 10^−5 M, read-out: Inhibition of tyrosinase, Mean 10^−5 M, Donor 2
[10] = Donor 3, fair phototype, 10^−4 M, read-out: Inhibition of tyrosinase, Mean 10^−4 M, Donor 3
[11] = Donor 3, fair phototype, 10^−5 M, read-out: Inhibition of tyrosinase, Mean 10^−5 M, Donor 3
[12] = Donor S, fair phototype, 10^−4 M, read-out: Inhibition of tyrosinase, Mean 10^−4 M, Donor S
[13] = Donor S, fair phototype, 10^−5 M, read-out: Inhibition of tyrosinase, Mean 10^−5 M, Donor S
[14] = B103, Donor B, brown phototype, read-out: Inhibition of tyrosinase, Mean Donor B, 10^−3 M
[15] = B104, Donor B, brown phototype, 10^−4 M, read-out: Inhibition of tyrosinase, Mean Donor B, 10^−4 M
[16] = Donor A, brown phototype, read-out: Inhibition of tyrosinase, Mean Donor A, 10^−3 M
[17] = Donor A, brown phototype, 10^−4 M, read-out: Inhibition of tyrosinase, Mean Donor A, 10^−4 M
[18] = Donor A, brown phototype, 10^−5 M, read-out: Inhibition of tyrosinase, Mean Donor A, 10^−5 M
[19] = Donor B, brown phototype, 10^−5 M, read-out: Inhibition of tyrosinase, Mean Donor B, 10^−5 M
[20] = donor of black phototype, 10^−4 M, read-out: Inhibition, Mean Negroid skin, 10^−4 M
[21] = donor of black phototype, 10^−5 M, read-out: Inhibition, Mean Negroid skin, 10^−5 M

Row | SMILES | inhibition at 100 µM (Human tyrosinase [1]) [%] | inhibition at 10 µM (Human tyrosinase [1]) [%] | Percentages of viability, Mean 10^−4 M (normal human melanocytes) [%] | Percentages of viability, Mean 10^−5 M (normal human melanocytes) [%] | inhibition at 100 µM (Human tyrosinase [2]; [4]) [%] | inhibition at 10 µM (Human tyrosinase [2]; [5]) [%] | inhibition at 100 µM (Human tyrosinase [2]; [6]) [%] | inhibition at 10 µM (Human tyrosinase [2]; [7]) [%] | inhibition at 100 µM (Human tyrosinase [2]; [8]) [%] | inhibition at 10 µM (Human tyrosinase [2]; [9]) [%] | inhibition at 100 µM (Human tyrosinase [2]; [10]) [%] | inhibition at 10 µM (Human tyrosinase [2]; [11]) [%] | inhibition at 100 µM (Human tyrosinase [2]; [12]) [%] | inhibition at 10 µM (Human tyrosinase [2]; [13]) [%] | Antiradical activity, Mean 10^−5 M [3] [%] | Inhibition of fungal tyrosinase, percentage of inhibition, Mean 10^−4M (fungal tyrosinase) [%] | Inhibition of fungal tyrosinase, percentage of inhibition, Mean 10^−5M (fungal tyrosinase) [%] | inhibition at 1000 µM (Human tyrosinase [2]; [14]) [%] | inhibition at 100 µM (Human tyrosinase [2]; [15]) [%] | inhibition at 1000 µM (Human tyrosinase [2]; [16]) [%] | also measured
1 | O=C(/C=C/c1ccc(O)c(O)c1)NCCc1ccc(O)c(O)c1 [Example 10, N-trans-caffeoyldopamine] | 9.91 | 11.4 | 84.62 | 102.1 | 66.8 | 0 | 44.6 | 0 | 0 | 0.15 | 14.4 | 3.32 | 66.8 | 0 | 57.45 | 16.23 | 14.72 | – | – | – | –
2 | COc1cc(/C=C/C(=O)NCCc2ccc(O)cc2)ccc1O [Example 3, N-trans-feruloyltyramine] | 0 | 7.56 | 102.55 | 111.54 | 49.6 | 33.1 | 44.8 | 0 | 10.7 | 0 | 57.9 | 42.5 | 49.6 | 33.1 | 13.73 | 29.41 | 10.16 | 87.4 | 30.5 | 85.6 | inhibition at 100 µM (Human tyrosinase [2]; [17]): 40.4%; inhibition at 10 µM (Human tyrosinase [2]; [18]): 15.6%; inhibition at 10 µM (Human tyrosinase [2]; [19]): 16.7%; inhibition at 100 µM (Human tyrosinase [2]; [20]): 44.5%; inhibition at 10 µM (Human tyrosinase [2]; [21]): 21.9%
3 | COc1ccc(CCNC(=O)/C=C/c2ccc(O)c(O)c2)cc1OC [Example 12, N-trans-caffeoyl-3,4-dimethoxydopamine] | 6.53 | 0 | – | 109.84 | – | 5.63 | – | – | – | – | – | – | – | – | 44.51 | 17.32 | 20.26 | – | – | – | –
4 | COc1cc(CNC(=O)/C=C/c2ccc(O)c(O)c2)ccc1O [Example 11, N-trans-caffeoyl-4-hydroxy-3-methoxyphenylmethylamine] | 0 | 8.68 | – | 116.99 | – | 28 | – | – | – | – | – | – | – | – | 59.2 | 12.03 | 3.7 | – | – | – | –
5 | O=C(/C=C/c1ccc(O)c(O)c1)NCCc1ccc(O)cc1 [Example 9, N-trans-caffeoyltyramine] | 22.1 | 11.9 | 77.9 | 94.96 | 100 | 24.6 | 65.3 | 0 | 61.5 | 0 | 70.7 | 22.2 | 100 | 24.6 | 41.17 | 27.42 | 13.06 | 94.5 | 44.4 | 98.9 | inhibition at 100 µM (Human tyrosinase [2]; [17]): 44.6%; inhibition at 10 µM (Human tyrosinase [2]; [18]): 21.3%; inhibition at 10 µM (Human tyrosinase [2]; [19]): 18.9%; inhibition at 100 µM (Human tyrosinase [2]; [20]): 49.3%; inhibition at 10 µM (Human tyrosinase [2]; [21]): 16%
